Assay results taken from patent US20200061007A1, “CANCER STEM CELL PROLIFERATION INHIBITOR” (NATIONAL INSTITUTE OF ADVANCED INDUSTRIAL SCIENCE AND …, priority 2014, published 2020).

Legend:
[1] = test system: Human Leukemia Cell Line Kasumi-1; assay: Growth inhibition of Kasumi-1, isobologram; format: cell-based; settings: Homo sapiens; Kasumi-1, RPMI1640 with 20% FBS
Procedure: A human leukemia cell line Kasummi-1, containing cells positive for cancer stem cell markers, was cultured in RPMI1640 medium supplemented with 20% FBS, and the growth inhibitory action by the combination of Am80 and 5-AZ was studied using Isobologram. […] These concentrations were taken as 1.0, and the points corresponding to 1.0 in the two axes were connected to each other via a straight line. In cases where the ratio observed for the combination effect is on the line, the effect is additive, and, in cases where the ratio is below the line, the effect is synergistic.

[2] = test system: Human Pancreatic Cancer Cell Panc-1 Spheroids; assay: CD24+/CD44+/ESA+ cells by flow cytometry in Panc-1 spheroids; format: cell-based
Source text: Pancreatic cancer cells prepared by performing suspension culture in the presence of Am80 for 1 week was subjected to analysis of expression of cancer stem cell surface markers at the protein level by flow cytometry using fluorescence-labeled primary antibodies.

[3] = test system: Human Pancreatic Cancer Stem Cells Transplanted to Nude Mice; assay: Ratio of pancreatic cancer stem cells in removed tumor (anti-CD133 flow cytometry); format: in vivo; settings: Am80 3 mg/kg/day for 1 month, vs control
Procedure: Pancreatic cancer cells (1×10^6 cells) containing pancreatic cancer stem cells were subcutaneously transplanted to nude mice. Mice in which tumor formation was found 2 weeks later were subjected to administration of Am80 for 1 month at 3 mg/kg/day. Thereafter, the tumor was removed, and the tumor cells were treated by trypsin, followed by measuring the ratio of pancreatic cancer stem cells by flow cytometry using an anti-CD133 antibody.

[4] = test system: human pancreatic cancer cell line Panc-1 cell clusters; assay: Growth of human pancreatic cancer cell spheroids in suspension culture; format: cell-based
Procedure: Culturing of a human pancreatic cancer cell line in DMEM/F12 medium supplemented with B27, 20 ng/mL EGF, 20 ng/mL bFGF, and 4 μg/mL heparin using a low-adhesion dish allows formation of cell clusters, and the cells can be cultured in a suspended state. Under these conditions, the cells can be cultured such that they show increased levels of several cancer stem cell markers as well as markers reported for other cancers. First, the cell clusters containing the cells positive for the cancer stem cell markers were cultured in a medium supplemented with Am80 for 1 week, and the influences of Am80 on the growth of cell clusters and the expression levels of the cancer stem cell markers were analyzed.

[5] = test system: human pancreatic cancer cells containing pancreatic cancer stem cells; assay: Liver metastasis after transplantation to the pancreas of nude mice; format: in vivo; settings: Am80 3 mg/kg/day for 1 month
Procedure: Pancreatic cancer cells (1×10^6 cells) containing pancreatic cancer stem cells were transplanted to the pancreas of nude mice, and the size of a tumor formed by metastasis to the liver was measured 1 month later. Am80 was administered at 3 mg/kg/day for 1 month.

[6] = test system: CD133-positive human pancreatic cancer stem cells; assay: Cell migration in Boyden chambers; format: cell-based; settings: Am80 1 μM, CD133-positive fraction
Procedure: Pancreatic cancer cells containing pancreatic cancer stem cells were separated into CD133-positive cells and negative cells using magnetic antibody beads, and Am80 was added at 1 μM to the fractions, followed by culturing the cells in Boyden chambers and then observing the cells migrated into the back side of the membrane.

[7] = test system: human pancreatic cancer cells MIA-Paca2; assay: Tumor volume, MIA-Paca2/nude mice; format: in vivo
Procedure: A tumor piece of human pancreatic cancer cells MIA-Paca2 containing cells positive for cancer stem cell markers was subcutaneously transplanted to the dorsal part of each of 6-week-old female BALB/cAJc1-nu nude mice (4 mice/group, 5 mice only for the control group) using a trocar needle. At the time when the tumor volume reached 100 to 200 mm^3, the administration was started. Am80 was orally administered once a day at a dose of 2 mg/kg for 21 continuous days, and DXL was intravenously administered at a dose of 5 mg/kg from Day 1, 3 times at intervals of 4 days. In the combination group, the agents were administered at the same doses as, and by the same administration methods as, those in the cases of administration of each single agent. Measurement of the tumor diameter was carried out until the next day of the completion of the administration (Day 22). Based on the measured values of the longitudinal diameter and the transverse diameter, the tumor volume (mm^3) was determined according to the following formula: longitudinal diameter×transverse diameter^2/2. In the control group, physiological saline was intraperitoneally administered from Day 1, 3 times at intervals of 4 days.

[8] = test system: human pancreatic cancer cells subcutaneously transplanted to nude mice; assay: Pathologic samples of tumor, morphology of cellular tissue; format: in vivo; settings: Am80 3 mg/kg/day for 1 month, vs control
Procedure: Pancreatic cancer cells (1×10^6 cells) containing pancreatic cancer stem cells were subcutaneously transplanted to nude mice. Mice in which tumor formation was found 2 weeks later were subjected to administration of Am80 for 1 month at 3 mg/kg/day. Pathologic samples of each tumor were prepared to evaluate morphology of cellular tissue.

[9] = test system: human breast cancer cell line MCF-7; assay: Growth inhibition of MCF-7 in vitro; format: cell-based; settings: Homo sapiens, MCF7; MCF-7, 96 hours of exposure, RPMI1640 with 2% FBS
Procedure: A human breast cancer cell line MCF-7, containing cells positive for cancer stem cell markers, was cultured in RPMI1640 medium supplemented with 2% FBS, and the growth inhibitory action by the combination of Am80 and 5-AZ was studied. The IC50 values of the agents determined by 96 hours of the exposure were 1 μM and 20 μM, respectively. Thus, in order to study the growth inhibitory action, Am80 was used within the concentration range of 0.125 μM to 1 μM with a common ratio of 2, and 5-AZ was used within the concentration range of 2.5 μM to 20 μM with a common ratio of 2. In cases of use of these agents in combination, the growth inhibitory action was studied using these concentrations.

[10] = test system: Human pancreatic cancer cells; assay: Sphere formation of gemcitabine-treated pancreatic cancer cells (colony count); format: cell-based; settings: cells cultured with gemcitabine (10 nM) 1 week, then Am80 1 week
Procedure: Human pancreatic cancer cells were cultured in the suspension-culture state in the presence of gemcitabine (10 nM) for 1 week. Thereafter, Am80 was added to the culture, and suspension culture was carried out for 1 week, followed by counting the number of colonies formed.

[11] = suspension culture with Am80 for 1 week

CC1(C)CCC(C)(C)c2cc(NC(=O)c3ccc(C(=O)O)cc3)ccc21 [Am80, tamibarotene]
IC50 [1]: 1000 nM
abundance of cells positive for CD24+/CD44+/ESA+ ([2]; 10 μM Am80, suspension culture 1 week): reduced by half
abundance of cells positive for CD24+/CD44+/ESA+ ([2]; addition of Am80, suspension culture 1 week): significantly decreased
ratio of pancreatic cancer stem cells (CD133) in tumor [3]: action to suppress pancreatic cancer stem cells in vivo
sizes of the cell clusters ([4]; cultured for a total of 2 weeks in Am80-containing medium): further decreased
growth of the cell clusters [4, 11]: suppressed dependently on the concentration
number of cells [4, 11]: decreased dependently on the concentration
metastasis of the pancreatic cancer (size of tumor formed by metastasis to the liver) [5]: could be suppressed compared to the control
cell migration ability [6]: remarkable suppression
tumor volume Day 1 ([7]; Am80 2 mg/kg oral daily 21 days, DXL 5 mg/kg i.v. 3 times at intervals of 4 days, Day 1): 151.3 mm^3
tumor volume Day 5 ([7]; Am80 2 mg/kg oral daily, DXL 5 mg/kg i.v., Day 5): 182.1 mm^3
tumor volume Day 9 ([7]; Am80 2 mg/kg oral daily, DXL 5 mg/kg i.v., Day 9): 255.5 mm^3
tumor volume Day 13 ([7]; Am80 2 mg/kg oral daily, DXL 5 mg/kg i.v., Day 13): 348.8 mm^3
tumor volume Day 17 ([7]; Am80 2 mg/kg oral daily, DXL 5 mg/kg i.v., Day 17): 429.9 mm^3
tumor volume Day 22 ([7]; Am80 2 mg/kg oral daily, DXL 5 mg/kg i.v., Day 22): 466.4 mm^3
morphology of pancreatic cancer tissue [8]: differentiated morphology
IC50 [9]: 1000 nM
sphere formation (number of colonies formed) [10]: in vitro inhibitory effect on sphere formation
